Results reported in patent US20200399262A1, “COMPOUNDS FOR INHIBITING PROTEIN DEGRADATION AND METHODS OF USE THEREOF IN THE TREATMENT OF CANCER” (PI Therapeutics Ltd, priority 2018, published 2020).

Experiments:
[1] = tested on: SW620 xenograft; experiment: SW620 colorectal flank xenograft in nude mice; type: in vivo; conditions: 8 mg/kg IV, TIW for 21 days
Excerpt: FIG. 6A-6D show the evaluated in-vivo efficacy of Compound AA in a colorectal mouse flank xenograft models (HCT116, SW620). […] HCT-116 or SW620 cells (5×10^6 cells/mouse) were implanted in the rear flank of mail mice (6 weeks of age at the time of tumor implantation). On Day 20-23, mice were randomized for equivalent distribution of tumor volumes to treatment groups (n=5/group) and treated IV with vehicle, Compound AA (FIG. 6A, FIG. 6B) TIW for 21 days. Data are presented as mean tumor volume±SD. Body weight % changes in treated animals observed at end point (FIG. 6C, FIG. 6D). Animal xenograft models. MM1.S, HCT-116, SW620 cell lines were purchased from ATCC and used for xenograft model. The cells were cultured in RPMI medium (Sigma-Aldrich) supplemented with 10% fetal bovine serum (FBS) and divided for up to 5 passages. Shortly prior to injection, cell suspension was mixed with Matrigel at 1:[…]) and injected subcutaneously to the rear flank area of male nude athymic 6 weeks old mice to obtain administration of 5×10^6 cells/animal. On day 20-23, when tumor volume reached 100-150 mm^3, mice were randomized for equivalent distribution of tumor volumes to treatment groups (n=5/group) and treated via intravenous injection.

[2] = tested on: RXF-393; experiment: Cell viability panel, CyQUANT Direct; type: cell-based; conditions: Homo sapiens, Renal cancer, 48 hours, read-out: Compound EC50
Method: (§1) Cell viability panel studies. Cells were diluted in the corresponding ATCC recommended medium and dispensed in a 384-well plate, depending on the cell line used, at a density of 200-6400 cells per well. For each used cell line, the optimal cell density was used. Compound was serially diluted and 8 concentration (0.04-32 μM) were added to the cells for 72 h exposure. At t=end, of ATPlite 1Step™ (PerkinElmer) were used to calculate cell viability. Cell lines marked with asterisk were seeded 24 h prior to treatment in 96-well plates at the density range of 5,000-40,000 cells/well, according to duplication rate, in RPMI 1640 medium containing 10% fetal bovine serum and 2 mM L-glutamine. Compounds were diluted from 10 mM DMSO stock and treatment was applied at the range of 0.04-1 μM. Following incubation at 37° C. for 48 hours with increasing concentrations of the compounds, viability was determined with CyQUANT® Direct Assay Kit (Invitrogen). Output intensities were normalized to values after treatment with DMSO alone, and EC50 values were calculated using the absorbance measurements [time zero, (Tz), growth control, (C), plus the test growth at the four drug concentration levels (Ti)] as follows: [(Ti−Tz)/(C−Tz)]×100 for concentrations for which Ti>/=Tz; [(Ti−Tz)/Tz]×100 for concentrations for which Ti−<Tz.

[3] = tested on: SK-OV-3; experiment: Cell viability panel, CyQUANT Direct; type: cell-based; conditions: Homo sapiens, Ovarian, 48 hours, read-out: Compound EC50
Method: as §1

[4] = tested on: UACC-257; experiment: Cell viability panel, CyQUANT Direct; type: cell-based; conditions: Homo sapiens, Melanoma, 48 hours, read-out: Compound EC50
Method: as §1

[5] = tested on: OVCAR-4; experiment: Cell viability panel, CyQUANT Direct; type: cell-based; conditions: Homo sapiens, Ovarian Cancer, 48 hours, read-out: Compound EC50
Method: as §1

[6] = tested on: SF-539; experiment: Cell viability panel, CyQUANT Direct; type: cell-based; conditions: Homo sapiens, CNS, 48 hours, read-out: Compound EC50
Method: as §1

[7] = tested on: CAKI-1; experiment: Cell viability panel, CyQUANT Direct; type: cell-based; conditions: Homo sapiens, Renal cancer, 48 hours, read-out: Compound EC50
Method: as §1

[8] = tested on: SNB-19; experiment: Cell viability panel, CyQUANT Direct; type: cell-based; conditions: Homo sapiens, CNS, 48 hours, read-out: Compound EC50
Method: as §1

[9] = tested on: TK-10; experiment: NCI60 screen cytotoxicity; type: cell-based; conditions: Homo sapiens, Renal cancer, read-out: Compound B1 EC50
[10] = tested on: OVCAR-5; experiment: NCI60 screen cytotoxicity; type: cell-based; conditions: Homo sapiens, Ovarian cancer, read-out: Compound B1 EC50
[11] = tested on: UACC-257; experiment: NCI60 screen cytotoxicity; type: cell-based; conditions: Homo sapiens, Melanoma, read-out: Compound B1 EC50
[12] = tested on: DU-145; experiment: NCI60 screen cytotoxicity; type: cell-based; conditions: Homo sapiens, Prostate cancer, read-out: Compound B1 EC50
[13] = tested on: MDA-MB-435; experiment: NCI60 screen cytotoxicity; type: cell-based; conditions: Homo sapiens, Melanoma, read-out: Compound B1 EC50
[14] = tested on: MDA-MB-468; experiment: NCI60 screen cytotoxicity; type: cell-based; conditions: Homo sapiens, Breast cancer, read-out: Compound B1 EC50
[15] = tested on: MOLT-4; experiment: NCI60 screen cytotoxicity; type: cell-based; conditions: Homo sapiens, Leukemia, read-out: Compound B1 EC50
[16] = tested on: MCF-7; experiment: NCI60 screen cytotoxicity; type: cell-based; conditions: Homo sapiens, MCF7, Breast cancer, read-out: Compound B1 EC50
[17] = tested on: IGR-OV1; experiment: NCI60 screen cytotoxicity; type: cell-based; conditions: Homo sapiens, IGROV-1, Ovarian cancer, read-out: Compound B1 EC50
[18] = tested on: SF-295; experiment: NCI60 screen cytotoxicity; type: cell-based; conditions: Homo sapiens, CNS, read-out: Compound B1 EC50
[19] = tested on: NCI-H322M; experiment: NCI60 screen cytotoxicity; type: cell-based; conditions: Homo sapiens, Lung cancer, read-out: Compound B1 EC50
[20] = tested on: SNB-19; experiment: NCI60 screen cytotoxicity; type: cell-based; conditions: Homo sapiens, CNS, read-out: Compound B1 EC50
[21] = tested on: COLO-205; experiment: NCI60 screen cytotoxicity; type: cell-based; conditions: Homo sapiens, Colon cancer, read-out: Compound B1 EC50
[22] = tested on: 786-0; experiment: NCI60 screen cytotoxicity; type: cell-based; conditions: Homo sapiens, Renal cancer, read-out: Compound B1 EC50

Q: Which Animal body weight [1] does the source give for `CN(C)CCCS(=O)(=O)N1C/C(=C\c2ccc(C#N)cc2)C(=O)/C(=C/c2ccc(C#N)cc2)C1` [Compound AA] here?
A: not considerably affected

Q: What about the “tumor growth compared to vehicle control” value [1] of the same molecule?
A: significantly inhibited tumor growth

Q: And the EC50 [2]?
A: ≥ 1000 nM

Q: And the EC50 [3]?
A: < 300 nM

Q: And the EC50 [4]?
A: 300 to 1000 nM

Q: And the EC50 [5]?
A: 300 to 1000 nM

Q: What about the EC50 [6] of the same molecule?
A: < 300 nM

Q: What about the EC50 [7] of the same molecule?
A: ≥ 1000 nM

Q: What about the EC50 [8] of the same molecule?
A: < 300 nM

Q: `CN(C)CC(=O)NCC(=O)N1C/C(=C\c2ccc(C#N)cc2)C(=O)/C(=C/c2ccc(C#N)cc2)C1` [Compound B1] was tested. Which EC50 [9] did it give?
A: 300 to 1000 nM

Q: What about the EC50 [10] of the same molecule?
A: < 300 nM

Q: What about the EC50 [11] of the same molecule?
A: 300 to 1000 nM

Q: What about the EC50 [12] of the same molecule?
A: < 300 nM

Q: And the EC50 [13]?
A: < 300 nM

Q: And the EC50 [14]?
A: < 300 nM

Q: What about the EC50 [15] of the same molecule?
A: < 300 nM

Q: And the EC50 [16]?
A: 300 to 1000 nM

Q: And the EC50 [17]?
A: < 300 nM

Q: And the EC50 [18]?
A: < 300 nM

Q: And the EC50 [19]?
A: 300 to 1000 nM

Q: What about the EC50 [20] of the same molecule?
A: 300 to 1000 nM

Q: And the EC50 [21]?
A: 300 to 1000 nM

Q: And the EC50 [22]?
A: 300 to 1000 nM
